Measurements published in US11072601B2, “μ-opioid receptor agonist and preparation method therefor and use thereof in field of medicine” (SHANGHAI SYNERGY PHARMACEUTICAL SCIENCES CO., LTD., priority 2017, dated 2021).
pEC50: −log10 of the molar value.

Assays:
[1] = tested on: rat surgical incision injury model; experiment: Rat surgical incision injury model, von Frey paw withdrawal threshold; format: in vivo, SD rats; settings: rats, intravenous 0.3 mg/kg
Description: 8-week-old male SD rats weighing 200 g-300 g were used as experimental animals to determine the effect of the compound of Example H02, the compound of Example H04, the compound of Example H10, the compound of Example H16, the compound of Example H17, the compound of Example H18, the compound of Example H21 and the compound of Example H24 on surgical pain in rats after intravenous administration. The analgesic effect of the compounds was discussed.
A certain amount of the compounds or TRV130 (MCE, 15150) was weighed, and dissolved in ethanol/castor oil/water=10/10/80 as a clear and transparent solution.
Three days after the rats were acclimatized to the experimental environment, the preoperative base value was determined, and followed by the surgical pain operation described below, about 24 hours after the surgery, the basic value was measured before administration on all animals, and mechanically hypersensitive animals (the paw withdrawal threshold (PWT) was less than 5 g) was randomly assigned to each administration group according to PWT. The pain threshold was determined 30 minutes and 60 minutes after intravenous administration of the positive drug TRV130 or each compound of the present invention (at a dose of 0.3 mg/kg).
The surgical procedure was performed aseptically, and the surgical instruments (scissors, tweezers, scalpels, surgical cotton and sutures) were sterilized before surgery. The animals were anesthetized with sodium pentobarbital (50 mg/kg, injected intraperitoneally), and the toes of the animals were squeezed to confirm that the animals were completely anesthetized before surgery. From the position of 0.5 cm away from the heel, an incision about 1 cm was made in the longitudinal direction of the toe. After cutting the skin, the musculus flexor digitorum brevis was raised and a blunt injury was caused longitudinally. After pressing to stop bleeding, the wound was sutured. When the animal was completely awake (free to move), the animal was put back into the cage (the reference of the construction of surgical pain model: Timothy J. Brennan, Erik P. Vandermeulen, G. F. Gebhart. Characterization of a rat model of incisional pain. Pain, 64(1996):493-501).
An up-down method was used for the determination of pain sensitivity. The mechanical pain results were expressed as animal paw withdrawal response threshold (PWT). The rat was placed separately in a plexiglass box with a mesh at the bottom of the box to ensure that the rat's feet could be tested. The rat was acclimatized for 15 minutes before the test, and after the acclimatization, the test fiber (von frey fiber, West coast) was used to test in the middle part of the hind foot of the rat. The test fibers included 8 test strengths: 3.61 (0.4 g), 3.84 (0.6 g), 4.08 (1 g), 4.31 (2 g), 4.56 (4 g), 4.74 (6 g), 4.93 (8 g), and 5.18 (15 g). During the test, the test fiber was pressed vertically against the skin and a force was applied to bend the fiber for 6-8 seconds, at an interval of 5 seconds between each test. During the test, the animal's rapid withdrawal was recorded as a pain response. When the test fiber left the animal's skin, the animal's withdrawal was also recorded as a pain response. Starting from 2 g, depending on whether the rats had any pain response, the test was changed into the next test intensity or the previous test intensity. A series of responses of the rats to different test intensities were recorded. […] Wherein, Xf was the logarithmic value of von Frey fiber used in the last test, and K value was the animal withdrawal reaction mode (recorded during the test), which was the value obtained after looking up the table according to the obtained sequence of “X” and “O”, δ=Mean of logarithmic difference between von Frey fibers used in the test.

[2] = molecular target: T1, μ opioid receptor (MOR) (Homo sapiens, UniProt P35372); experiment: cell-based; settings: HEK293 stably expressing μ opioid receptor, FLIPR calcium
T1 construct: host or cells: HEK293
T1 sequence (P35372 whole entry, species assumed): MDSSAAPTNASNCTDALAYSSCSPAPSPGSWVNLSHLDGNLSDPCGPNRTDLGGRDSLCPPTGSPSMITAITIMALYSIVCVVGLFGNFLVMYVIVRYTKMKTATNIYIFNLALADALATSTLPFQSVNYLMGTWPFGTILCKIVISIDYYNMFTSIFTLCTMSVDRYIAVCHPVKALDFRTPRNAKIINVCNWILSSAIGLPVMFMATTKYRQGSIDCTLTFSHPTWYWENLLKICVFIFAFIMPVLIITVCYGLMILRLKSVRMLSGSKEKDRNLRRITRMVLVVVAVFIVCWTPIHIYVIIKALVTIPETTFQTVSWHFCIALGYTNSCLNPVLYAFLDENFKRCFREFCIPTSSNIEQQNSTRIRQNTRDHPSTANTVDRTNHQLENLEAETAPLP
Protocol: The purpose of the experiment was to test the agonistic effects of the compounds of the present invention on μ opioid receptor (MOR), κ opioid receptor (KOR) and δ opioid receptor (DOR), and to evaluate in vitro activity of the compounds according to the half-maximal effect concentration (EC50).
This test was performed using HEK293 cell lines (the stably expressed cell lines were provided by WuXi AppTec) which stably expressed μ opioid receptor, δ opioid receptor or κ opioid receptor respectively. […] The cells were centrifuged at 1000 rpm for 5 minutes at room temperature to precipitate. The supernatant was sucked out, be careful not to suck out cells. The precipitate was flicked into the loose cells and resuspend in 45 ml DMEM medium. The Vi-CELL XR automatic cell viability detector (BECKMAN COULTER) was used to count the cells, and the cell concentration was adjusted to 10×10^5 cells/ml based on the counting results.
Preparation of probenecid mother solution: 1 ml of FLIPR test solution was added to 77 mg probenecid to prepare a 250 mM solution. The solution was freshly prepared just before use.
The solution was freshly prepared just before use.
The cell plate prepared above was removed from the incubator and 20 ul 2× Fluo-4 Direct™ buffer was added thereto. The final volume in the cell plate was […]. The plate was incubated at 37° C., under 5% CO2 for 50 minutes, and incubated at room temperature for 10 minutes, then was placed into the FLIPR instrument (MD), and the compound plate and pipette box was placed into. The protocol was run on the […] platform, 10 μl of positive drug or the test compound was transfered to the cell plate from the compound plate, and the fluorescent signal was read.
The signal value generated by each well was calculated, and the calculation formula was that: the activity %=(signal value of the test compound−signal value of the solvent)/(signal value of the positive drug−signal value of the solvent).

[3] = molecular target: T2, cAMP pathway of MOR receptor (Homo sapiens, UniProt P35372); experiment: cell-based; settings: cAMP Hunter HEK293 cells, forskolin-induced cAMP; read-out: EC50 of cAMP levels affected by agonistic effect on MOR
T2 construct: host or cells: HEK293 (cAMP Hunter cell line)
T2 sequence (P35372 whole entry): as the sequence (P35372 whole entry, species assumed) above
Description: The purpose of this experiment was to test the agonistic effect of the compounds of the invention on the cAMP pathway of MOR and to evaluate the in vitro activity of the compounds according to EC50.
In this experiment, HitHunter cAMP Assay EFC technology of DiscoverX was used to measure the cAMP level in cells and monitor the functional status of G-protein coupled receptors (GPCRs).
The amount of signal produced was directly proportional to the amount of cAMP in the cell.
The MOR receptor was bound to the inhibitory Gαi protein, so forskolin (for inducing cAMP signal) was used to induce cAMP expression in the experiment, and the inhibitory effect of the compounds on the above induction was measured.
The cAMP Hunter cell line (HEK293, DiscoverX) was removed from the freezer and expanded according to the Cell Standard Operating Procedure (SOP), 20 μL was collected and inoculated into a 384-well microplate and incubated at 37° C. overnight.
The HitHunter cAMP Assay test kit (DiscoverX, 90-0075sm) was used, the kit contained cAMP buffer, cAMP detection solution, and cAMP working solution A.
The formula was used to calculate the percentage of signal activity per well=100%×(1−(average RLU of the test samples−average RLU of the MAX controls)/(average RLU of the solvent controls−average RLU of the MAX controls)). wherein, the MAX control referred to the fluorescence signal value of the endorphin solution, and the solvent control referred to the fluorescence signal value of DMSO. The DiscoveRx CBIS data analysis workstation (ChemInnovation, CA) was used to perform statistical analysis of the percentage of signal activity and the concentration of the compounds by the agonist formula (comes with the software, universal) to calculate the EC50 value.

[4] = molecular target: T3, β-arrestin signaling pathway of MOR (Homo sapiens, UniProt P35372); experiment: cell-based; settings: PathHunter HEK293 cells, relative to endorphin MAX control
T3 construct: host or cells: HEK293 (PathHunter cell line)
T3 sequence (P35372 whole entry): as the sequence (P35372 whole entry, species assumed) above

[5] = tested on: SD rats; experiment: Respiratory depression in rats, arterial blood gas PCO2; format: in vivo
Description: 8-week-old male SD rats weighing 200 g-300 g were used as experimental animals to determine the effect of the compound of Example H05, the compound of Example H08, the compound of Example H10, the compound of Example H16, the compound of Example H17, the compound of Example H18, the compound of Example H21, and the compound of Example H24 on the partial pressure of blood in rats after intravenous administration. The effects of the compounds of the invention on respiratory depression were investigated.
After the rats were acclimatized to the experimental environment for 3 days, each animal was anesthetized with sodium pentobarbital (50-60 mg/kg, ip), and then the right common carotid artery was isolated and the unilateral carotid artery tube-bury surgery was performed (PE60, ID*OD*length as 0.76 mm*1.22 mm*20 cm, buried into the artery 1 cm deep, and the tube was filled with heparin sodium tube sealing solution).

Structure (SMILES) | 50% PWT, 30 min after administration [1] | 50% PWT, 60 min after administration [1] | pEC50 [2] | pEC50 [3] | Emax [4] | PCO2, 5 min before administration ([5]; arterial blood, before administration) | PCO2, 5 min after administration ([5]; intravenous single dose 0.3 mg/kg (morphine 24 mg/kg), 5 min) | PCO2, 30 min after administration ([5]; intravenous single dose 0.3 mg/kg (morphine 24 mg/kg), 30 min) | PCO2, 60 min after administration ([5]; intravenous single dose 0.3 mg/kg (morphine 24 mg/kg), 60 min) | PCO2, 120 min after administration ([5]; intravenous single dose 0.3 mg/kg (morphine 24 mg/kg), 120 min)
COc1ccsc1CNCC[C@@]1(c2ccccn2)CCOC2(CCCC2)C1 [TRV130, reference compound] | 6.05 ± 0.44 g | 5.71 ± 0.33 g | – | – | – | – | – | – | – | –
Cc1cc(F)cnc1C1(CCNCc2ccccc2OC(F)(F)F)CCOC2(CCCC2)C1 (stereo not drawn) [Example H10, (2-trifluoromethoxybenzyl)-[2-(9-(3-methyl-5-fluoropyridin-2-yl)-6-oxaspiro[4.5]decan-9-yl)ethyl]amine] | 8.05 ± 0.24 g | 7.59 ± 1.02 g | 8.67 | 8.54 | 3.7% | 35.72 ± 1.88 mmHg | 37.48 ± 1.94 mmHg | 35.03 ± 1.89 mmHg | 36.27 ± 1.67 mmHg | 36.83 ± 1.85 mmHg
